Earlier results as cited in patent publication US10792481B2, “Implantable drug delivery device” (Nano Precision Medical, Inc., priority 2014, dated 2020).

Conditions: 37° C., 0.2 atmosphere partial pressure

- solubility of oxygen in water: about 7 mg/liter
SMILES: O=O [oxygen]
